In brackets after ≈: the same amount, converted by molar mass. Read-outs that look alike come from different tables or passages of the source. Where a SMILES comes first, the peptide text is derived from it. [ ]: non-standard residue; d: D form. Hyp = O=C(O)[C@@H]1C[C@@H](O)CN1; dHyp = O=C(O)[C@H]1C[C@H](O)CN1; Aic = NC1(C(=O)O)Cc2ccccc2C1; dNle = CCCC[C@@H](N)C(=O)O
What was measured:
[1] = system: methicillin-susceptible S. pseudintermedius (MSSP); experiment: microbe, parasite or virus in culture; format: cell-based, Staphylococcus pseudintermedius; settings: Staphylococcus pseudintermedius, 24 h
Protocol: (§1) MIC of all compounds was determined in Sabouraud Dextrose broth with 1% tween 80 (SB) medium, for M. pachydermatis, and Mueller–Hinton broth (MH), for S. pseudintermedius, by the broth microdilution assay (BMD) in 96-well microtiter plates, as previously reported. Specifically, SB containing 1% Tween 80 was used instead of RPMI 1640 medium. All compounds were dissolved in ethanol and ketoconazole in dimethyl sulfoxide (DMSO). The solutions were serially diluted in SB and MH two-fold from 0.19 to 50 μM. M. pachydermatis suspension was prepared from 3-day-old colonies grown on Sabouraud agar at 30 °C. The final concentration of the yeast inoculum suspensions was equivalent to 1–3 × 10^3 CFU/mL. Bacterial suspensions were diluted to yield an optical density (OD) around 0.5 at 595 nm and further diluted to a final concentration of 1 × 10^6 CFU/mL. The compounds were added to the microbial suspension in each well yielding a final cell concentration of 5 × 10^5 CFU/mL. Positive controls included oxacillin 5 μM (2 μg/mL) and vancomycin 1.4 μM (2 μg/mL) for S. pseudintermedius or ketoconazole 0.2 μM (0.125 μg/mL) for M. pachydermatis. Negative control wells were set to contain bacteria in MH or yeasts in SB plus the amount of ethanol used to dilute each compound. Medium turbidity was measured by a microtiter plate reader (Tecan, Milan, Italy) at 595 nm after 24 h for S. pseudintermedius and 48 h for M. pachydermatis. Absorbance was proportional to microbial growth. The MIC was defined as the lowest concentration of drug that caused a prominent decrease (≥90% inhibition) in visible growth relative to that of the growth control.

[2] = system: methicillin-resistant S. pseudintermedius (MRSP); experiment: microbe, parasite or virus in culture; format: cell-based, Staphylococcus pseudintermedius; settings: Staphylococcus pseudintermedius, 24 h
Protocol: as §1

MRSP = experiment: Checkerboard synergy of peptide 8 and oxacillin; format: cell-based, Staphylococcus pseudintermedius
Protocol: The interaction between peptide 8 and oxacillin against MRSP was evaluated by the checkerboard method. Briefly, twofold serial dilutions of oxacillin distributed in horizontal rows of 96-well microtiter plate were cross-diluted vertically by twofold serial dilutions of peptide 8 to at least double the MIC. The peptide 8 tested concentration ranging from 0.19 to 12.5 μM and oxacillin from 1.25 to 25 μM (0.5 to 10 μg/mL). Microtiter plates were inoculated with bacteria at an approximate concentration of 10^5 CFU/mL and incubated at 37 °C for 24 h. […] To evaluate the effect of the combination treatment, the fractional inhibitory concentration (FIC) index for each combination was calculated as follows: FIC index = FIC of peptide 8 + FIC of oxacillin, where FIC of peptide 8 (or oxacillin) was defined as the ratio of MIC of peptide 8 (or oxacillin) in combination and MIC of peptide 8 (or oxacillin) alone. The FIC index values were interpreted as follows: ≤0.5, synergistic; >0.5 to ≤1.0, additive; >1.0 to ≤2.0, indifferent; and >2.0, antagonistic effects.

M. pachydermatis = settings: for MIC Values: broth microdilution, Sabouraud dextrose broth + 1% Tween 80, 48 h, ≥90% inhibition of growth, OD 595 nm; for MMC/MIC Ratio: M. pachydermatis; for MMC Values (minimum mycocidal concentration): ≥3 log10 reduction in colony count from starting inoculum, agar 72 h at 30 °C
Protocol: as §1

Cc1onc(-c2ccccc2)c1C(=O)N[C@@H]1C(=O)N2[C@@H]1SC(C)(C)[C@@H]2C(=O)O [Oxacillin, oxacillin, reference compound]
MIC ([1]; MSSP, Mueller-Hinton broth, ≥90% inhibition, three independent experiments in triplicate, read-out: MIC): < 5 µM | MIC ([2]; MRSP, Mueller-Hinton broth, ≥90% inhibition, three independent experiments in triplicate, read-out: MIC): 25 µM (≈ 10 µg/mL) | Oxacillin MIC value reduction in combination with peptide 8 (MRSP; MRSP, oxacillin alone versus oxacillin in combination): about eight | Concentration of oxacillin in the most synergistic combination (MRSP; with 1.56 μM peptide 8, MRSP, 1/8 MIC): 3.1 µM

CC[C@H](C)[C@H](NC(=O)[C@H](CCCNC(=N)N)NC(=O)CNC(=O)[C@@H](CC(C)C)NC(=O)[C@H](Cc1ccccc1)NC(=O)[C@H](CCCCN)NC(=O)[C@H](CO)NC(=O)[C@H](Cc1ccccc1)NC(=O)[C@H](Cc1c[nH]c2ccccc12)NC(=O)[C@@H]1CCCN1C(=O)[C@@H](NC(=O)[C@@H](N)Cc1ccccc1)C(C)C)C(=O)N[C@@H](CC(C)C)C(N)=O [Peptide 1] (H-FVPWFSKF[dL]GRIL-NH2)
MIC Values (M. pachydermatis): 25 µM

CC[C@H](C)[C@H](NC(=O)[C@H](CCCNC(=N)N)NC(=O)[C@@H]1CCCN1C(=O)[C@@H](CC(C)C)NC(=O)[C@H](Cc1ccccc1)NC(=O)[C@H](CCCCN)NC(=O)[C@H](CO)NC(=O)[C@H](Cc1ccccc1)NC(=O)[C@H](Cc1c[nH]c2ccccc12)NC(=O)[C@@H]1CCCN1C(=O)[C@@H](NC(=O)[C@@H](N)Cc1ccccc1)C(C)C)C(=O)N[C@@H](CC(C)C)C(N)=O [Peptide 2] (H-FVPWFSKF[dL]PRIL-NH2)
MMC/MIC Ratio (M. pachydermatis): 4 | MIC Values (M. pachydermatis): 25 µM | MMC Values (minimum mycocidal concentration) (M. pachydermatis): 100 µM

CC[C@H](C)[C@H](NC(=O)[C@H](CCCNC(=N)N)NC(=O)[C@H]1CCCN1C(=O)[C@@H](CC(C)C)NC(=O)[C@H](Cc1ccccc1)NC(=O)[C@H](CCCCN)NC(=O)[C@H](CO)NC(=O)[C@H](Cc1ccccc1)NC(=O)[C@H](Cc1c[nH]c2ccccc12)NC(=O)[C@@H]1CCCN1C(=O)[C@@H](NC(=O)[C@@H](N)Cc1ccccc1)C(C)C)C(=O)N[C@@H](CC(C)C)C(N)=O [Peptide 3] (H-FVPWFSKF[dL][dP]RIL-NH2)
MMC/MIC Ratio (M. pachydermatis): 4 | MIC Values (M. pachydermatis): 25 µM | MMC Values (minimum mycocidal concentration) (M. pachydermatis): 100 µM

CC[C@H](C)[C@H](NC(=O)[C@H](CCCNC(=N)N)NC(=O)[C@@H]1C[C@@H](O)CN1C(=O)[C@@H](CC(C)C)NC(=O)[C@H](Cc1ccccc1)NC(=O)[C@H](CCCCN)NC(=O)[C@H](CO)NC(=O)[C@H](Cc1ccccc1)NC(=O)[C@H](Cc1c[nH]c2ccccc12)NC(=O)[C@@H]1CCCN1C(=O)[C@@H](NC(=O)[C@@H](N)Cc1ccccc1)C(C)C)C(=O)N[C@@H](CC(C)C)C(N)=O [Peptide 4] (H-FVPWFSKF[dL][Hyp]RIL-NH2)
MMC/MIC Ratio (M. pachydermatis): 4 | MIC Values (M. pachydermatis): 25 µM | MMC Values (minimum mycocidal concentration) (M. pachydermatis): 100 µM

CC[C@H](C)[C@H](NC(=O)[C@H](CCCNC(=N)N)NC(=O)[C@H]1C[C@H](O)CN1C(=O)[C@@H](CC(C)C)NC(=O)[C@H](Cc1ccccc1)NC(=O)[C@H](CCCCN)NC(=O)[C@H](CO)NC(=O)[C@H](Cc1ccccc1)NC(=O)[C@H](Cc1c[nH]c2ccccc12)NC(=O)[C@@H]1CCCN1C(=O)[C@@H](NC(=O)[C@@H](N)Cc1ccccc1)C(C)C)C(=O)N[C@@H](CC(C)C)C(N)=O [Peptide 5] (H-FVPWFSKF[dL][dHyp]RIL-NH2)
MMC/MIC Ratio (M. pachydermatis): 4 | MMC Values (minimum mycocidal concentration) (M. pachydermatis): 100 µM

CCCC[C@@H](NC(=O)[C@@H](CC(C)C)NC(=O)[C@H](Cc1ccccc1)NC(=O)[C@H](CCCCN)NC(=O)[C@H](CO)NC(=O)[C@H](Cc1ccccc1)NC(=O)[C@H](Cc1c[nH]c2ccccc12)NC(=O)[C@@H]1CCCN1C(=O)[C@@H](NC(=O)[C@@H](N)Cc1ccccc1)C(C)C)C(=O)N[C@@H](CCCNC(=N)N)C(=O)N[C@H](C(=O)N[C@@H](CC(C)C)C(N)=O)[C@@H](C)CC [Peptide 6] (H-FVPWFSKF[dL][dNle]RIL-NH2; N-terminus assumed)
MMC/MIC Ratio (M. pachydermatis): 4 | MIC Values (M. pachydermatis): 25 µM | MMC Values (minimum mycocidal concentration) (M. pachydermatis): 100 µM

CC[C@H](C)[C@H](NC(=O)[C@H](CCCNC(=N)N)NC(=O)[C@H](CCCCN)NC(=O)[C@@H](CC(C)C)NC(=O)[C@H](Cc1ccccc1)NC(=O)[C@H](CCCCN)NC(=O)[C@H](CO)NC(=O)[C@H](Cc1ccccc1)NC(=O)[C@H](Cc1c[nH]c2ccccc12)NC(=O)[C@@H]1CCCN1C(=O)[C@@H](NC(=O)[C@@H](N)Cc1ccccc1)C(C)C)C(=O)N[C@@H](CC(C)C)C(N)=O [Peptide 7] (H-FVPWFSKF[dL]KRIL-NH2; N-terminus assumed)
MMC/MIC Ratio (M. pachydermatis): 2 | MIC Values (M. pachydermatis): 12.5 µM | MMC Values (minimum mycocidal concentration) (M. pachydermatis): 25 µM

CC[C@H](C)[C@H](NC(=O)[C@H](CCCNC(=N)N)NC(=O)[C@H](Cc1c[nH]c2ccccc12)NC(=O)[C@@H](CC(C)C)NC(=O)[C@H](Cc1ccccc1)NC(=O)[C@H](CCCCN)NC(=O)[C@H](CO)NC(=O)[C@H](Cc1ccccc1)NC(=O)[C@H](Cc1c[nH]c2ccccc12)NC(=O)[C@@H]1CCCN1C(=O)[C@@H](NC(=O)[C@@H](N)Cc1ccccc1)C(C)C)C(=O)N[C@@H](CC(C)C)C(N)=O [Peptide 9] (H-FVPWFSKF[dL]WRIL-NH2)
MMC/MIC Ratio (M. pachydermatis): 4 | MIC Values (M. pachydermatis): 25 µM | MMC Values (minimum mycocidal concentration) (M. pachydermatis): 100 µM

CC[C@H](C)[C@H](NC(=O)[C@H](CCCNC(=N)N)NC(=O)[C@@H](Cc1c[nH]c2ccccc12)NC(=O)[C@@H](CC(C)C)NC(=O)[C@H](Cc1ccccc1)NC(=O)[C@H](CCCCN)NC(=O)[C@H](CO)NC(=O)[C@H](Cc1ccccc1)NC(=O)[C@H](Cc1c[nH]c2ccccc12)NC(=O)[C@@H]1CCCN1C(=O)[C@@H](NC(=O)[C@@H](N)Cc1ccccc1)C(C)C)C(=O)N[C@@H](CC(C)C)C(N)=O [Peptide 10] (H-FVPWFSKF[dL][dW]RIL-NH2)
MMC/MIC Ratio (M. pachydermatis): 2 | MIC Values (M. pachydermatis): 12.5 µM | MMC Values (minimum mycocidal concentration) (M. pachydermatis): 25 µM

CC[C@H](C)[C@H](NC(=O)[C@H](CCCNC(=N)N)NC(=O)C1(NC(=O)[C@@H](CC(C)C)NC(=O)[C@H](Cc2ccccc2)NC(=O)[C@H](CCCCN)NC(=O)[C@H](CO)NC(=O)[C@H](Cc2ccccc2)NC(=O)[C@H](Cc2c[nH]c3ccccc23)NC(=O)[C@@H]2CCCN2C(=O)[C@@H](NC(=O)[C@@H](N)Cc2ccccc2)C(C)C)Cc2ccccc2C1)C(=O)N[C@@H](CC(C)C)C(N)=O [Peptide 11] (H-FVPWFSKF[dL][Aic]RIL-NH2)
MMC/MIC Ratio (M. pachydermatis): 4 | MIC Values (M. pachydermatis): 25 µM | MMC Values (minimum mycocidal concentration) (M. pachydermatis): 100 µM

CN[C@H](CC(C)C)C(=O)N[C@H]1C(=O)N[C@@H](CC(N)=O)C(=O)N[C@H]2C(=O)N[C@H]3C(=O)N[C@H](C(=O)N[C@H](C(=O)O)c4cc(O)cc(O)c4-c4cc3ccc4O)[C@H](O)c3ccc(c(Cl)c3)Oc3cc2cc(c3O[C@@H]2O[C@H](CO)[C@@H](O)[C@H](O)[C@H]2O[C@H]2C[C@](C)(N)[C@H](O)[C@H](C)O2)Oc2ccc(cc2Cl)[C@H]1O [Vancomycin, vancomycin, reference compound]
MIC [1]: < 1.4 µM | MIC [2]: < 1.4 µM

— PMC7560154, “Novel Antimicrobial Peptide from Temporin L in The Treatment of Staphylococcus pseudintermedius and Malassezia pachydermatis in Polymicrobial Inter-Kingdom Infection” (Antibiotics, 2020)
